Assay results as given in US10407467B2, “Polymyxin derivatives and their use in combination therapy together with different antibiotics” (priority 2013, dated 2019).
Bridge positions count the residues as written; N and C are the ends. Square brackets hold non-standard residues; d marks the D form. Peptide text beside a SMILES is read from it. * marks the point of attachment. ξ: configuration not given here. Thr(3ξ) = CC(O)[C@H](N)C(=O)O; Dab = NCC[C@H](N)C(=O)O; X16 = CN(C)CCCC(=O)*; X15 = O=C(C1CCNC1)*; Ava = NCCCCC(=O)O

Columns and labels:
Assay type in all cases: cell-based
Escherichia coli = experiment: MIC, sole activity (no second agent)
How it was run: (§1)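 First, isolated colonies grown 18-24 hours on Mueller-Hinton agar were suspended to 0.5 McFarland; next, up to four strains per pathogen were tested in duplicate in cation-adjusted MHB; finally, the lower concordant value or modal repeat value was reported against Polymyxin B.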

Klebsiella pneumoniae [1] = experiment: MIC, sole activity (no second agent)
How it was run: as §1

Pseudomonas aeruginosa [2] = experiment: MIC, sole activity (no second agent); conditions: for MIC P. aeruginosa ATCCCRM-9027: strain ATCCCRM-9027
How it was run: as §1

Klebsiella pneumoniae [3] = experiment: MIC, compound in combination with a second agent (broth microdilution); conditions: 1:1 (wt:wt) combination with Rifampicin, MIC = total drug concentration; for MIC K. pneumoniae ATCC-BAA-2146: strain ATCC-BAA-2146; for MIC K. pneumoniae CCUG-59348: strain CCUG-59348; for MIC K. pneumoniae NCTC 13438: strain NCTC 13438
Experimental: (§2) To evaluate the potency and spectrum of the compounds both alone and in combination with another agent, susceptibility testing was performed against up to four strains of each of the four Gram negative pathogens, Escherichia coli, Pseudomonas aeruginosa, Klebsiella pneumoniae and Acinetobacter baumannii.
(§3) Ratios of components in a combination, such as 1:1, refers to a weight to weight ratio. The minimum inhibitory concentration (MIC) refers to the total drug concentration (e.g. test compound plus second agent, such as Rifampicin).
(§4) The inoculum was prepared by making a direct suspension of isolated colonies (selected from an 18-24 hour Mueller-Hinton agar plate) adjusted to the 0.5 McFarland standard.
(§5) The assays were performed in duplicate.
(§6) In cases where the duplicate values varied by less than 2-fold, the lower of the two values is reported. If a variation of greater than 2-fold was observed, the assay was considered non-valid. Several of the compounds were subjected to multiple tests, and where this is the case, the MIC reflects the modal value obtained.
(§7) The minimum inhibitory concentration refers to the total drug concentration (e.g. test compound plus Rifampicin). The compounds are used at equal mass within the combination. The weight refers to the mass of compound as used, for example the Example Compounds are used in their TFA or sulphate salt forms.
(§8) MICs refer to the total drug concentration. Thus, where a 1:1 combination is used, this is the amount of the test compound plus the second agent. For comparison, the MIC values for the second agent alone are also given.

Pseudomonas aeruginosa [4] = experiment: as above; conditions: 1:1 (wt:wt) combination with Rifampicin; MIC = total drug concentration; strain CCUG 59626
Experimental: as §2, §3, §4, §5, §6, §7, §8

Acinetobacter baumannii [5] = experiment: as above; conditions: 1:1 (wt:wt) combination with Rifampicin; MIC = total drug concentration; strain NCTC 13424
Experimental: as §2, §3, §4, §5, §6, §7, §8

Acinetobacter baumannii [6] = experiment: MIC, sole activity (no second agent); conditions: for MIC A. baumannii ATCCBAA-747 / MIC A. baumannii NCTC 13423: in the absence of Rifampicin; for MIC A. baumannii ATCCBAA-747: strain ATCCBAA-747; for MIC A. baumannii NCTC 13423: strain NCTC13423
How it was run: as §1

[7] = in the absence of Rifampicin, strain ATCC25922
[8] = in the absence of Rifampicin, strain ATCC 4352
[9] = in the absence of Rifampicin, strain ATCC27853
[10] = Table 6A, no second agent, different supplier of Cation-adjusted MHB

Compound: CC(C)C[C@@H]1NC(=O)[C@@H](Cc2ccccc2)NC(=O)[C@H](CCN)NC(=O)[C@@H](NC(=O)[C@H](CCN)NC(=O)[C@@H](NC(=O)CC(C)O)C(C)O)CCNC(=O)[C@H](C(C)O)NC(=O)[C@H](CCN)NC(=O)[C@H](CCN)NC1=O (mixture of isomers) [Example 15, 3(RS)-3- Hydroxybutanoyl polymyxin B nonapeptide]
- MIC E. coli ATCC25922 (Escherichia coli; [7]): 4 micrograms/mL
- MIC K. pneumoniae ATCC 4352 (Klebsiella pneumoniae [1]; [8]): 8 micrograms/mL
- MIC P. aeruginosa ATCC 27853 (Pseudomonas aeruginosa [2]; [9]): 0.5 micrograms/mL
- MIC K. pneumoniae ATCC-BAA-2146 (Klebsiella pneumoniae [3]): 4 micrograms/mL
- MIC K. pneumoniae CCUG-59348 (Klebsiella pneumoniae [3]): 16 micrograms/mL
- MIC P. aeruginosa CCUG 59626 (Pseudomonas aeruginosa [4]): 0.5 micrograms/mL
- MIC A. baumannii NCTC 13424 (Acinetobacter baumannii [5]): 0.5 micrograms/mL

Compound: CC(C)C[C@@H]1NC(=O)[C@@H](Cc2ccccc2)NC(=O)[C@H](CCN)NC(=O)[C@@H](NC(=O)[C@H](CCN)NC(=O)[C@@H](NC(=O)CCCCN)C(C)O)CCNC(=O)[C@H](C(C)O)NC(=O)[C@H](CCN)NC(=O)[C@H](CCN)NC1=O (stereo partly shown) [Example 6, 5-Aminopentanoyl polymyxin B nonapeptide] (H-[Ava][Thr(3ξ)][Dab][Dab][Dab][dF]L[Dab][Dab][Thr(3ξ)]; lactam 4-C)
- MIC E. coli ATCC25922 (Escherichia coli; [7]): 2 micrograms/mL
- MIC E. coli NCTC9001 (Escherichia coli; in the absence of Rifampicin, strain NCTC9001): 2 micrograms/mL
- MIC K. pneumoniae ATCC 4352 (Klebsiella pneumoniae [1]; [8]): 0.5 micrograms/mL
- MIC P. aeruginosa ATCC 27853 (Pseudomonas aeruginosa [2]; [9]): 0.25 micrograms/mL
- MIC P. aeruginosa ATCCCRM-9027 (Pseudomonas aeruginosa [2]; in the absence of Rifampicin): 0.125 micrograms/mL
- MIC A. baumannii ATCCBAA-747 (Acinetobacter baumannii [6]): 8 micrograms/mL
- MIC A. baumannii NCTC 13423 (Acinetobacter baumannii [6]): 4 micrograms/mL
- MIC K. pneumoniae CCUG-59348 (Klebsiella pneumoniae [3]): 4 micrograms/mL
- MIC P. aeruginosa CCUG 59626 (Pseudomonas aeruginosa [4]): ≤0.06 micrograms/mL

Compound: CC(C)C[C@@H]1NC(=O)[C@@H](Cc2ccccc2)NC(=O)[C@H](CCN)NC(=O)[C@@H](NC(=O)[C@H](CCN)NC(=O)[C@@H](NC(=O)C2CCNC2)C(C)O)CCNC(=O)[C@H](C(C)O)NC(=O)[C@H](CCN)NC(=O)[C@H](CCN)NC1=O (stereo partly drawn) [Example 9, [3(R,S)-Pyrrolidine-3-carbonyl]polymyxin B nonapeptide] (X15-[Thr(3ξ)][Dab][Dab][Dab][dF]L[Dab][Dab][Thr(3ξ)]; lactam 3-C)
- MIC E. coli ATCC25922 (Escherichia coli; [7]): 0.5 micrograms/mL
- MIC K. pneumoniae ATCC 4352 (Klebsiella pneumoniae [1]; [8]): 0.5 micrograms/mL
- MIC P. aeruginosa ATCC 27853 (Pseudomonas aeruginosa [2]; [9]): 0.25 micrograms/mL
- MIC P. aeruginosa ATCCCRM-9027 (Pseudomonas aeruginosa [2]; in the absence of Rifampicin): 2 micrograms/mL
- MIC A. baumannii ATCCBAA-747 (Acinetobacter baumannii [6]): 4 micrograms/mL
- MIC A. baumannii NCTC 13423 (Acinetobacter baumannii [6]): 2 micrograms/mL
- MIC K. pneumoniae ATCC-BAA-2146 (Klebsiella pneumoniae [3]): 1 micrograms/mL
- MIC K. pneumoniae CCUG-59348 (Klebsiella pneumoniae [3]): 8 micrograms/mL
- MIC K. pneumoniae NCTC 13438 (Klebsiella pneumoniae [3]): 0.25 micrograms/mL
- MIC P. aeruginosa CCUG 59626 (Pseudomonas aeruginosa [4]): 0.125 micrograms/mL

Compound: CC(C)C[C@@H]1NC(=O)[C@@H](Cc2ccccc2)NC(=O)[C@H](CCN)NC(=O)[C@@H](NC(=O)[C@H](CCN)NC(=O)[C@@H](NC(=O)CCCN(C)C)C(C)O)CCNC(=O)[C@H](C(C)O)NC(=O)[C@H](CCN)NC(=O)[C@H](CCN)NC1=O (stereo partly shown) [Example 11, 4-(N,N-dimethylamino)-butanoyl polymyxin B nonapeptide] (X16-[Thr(3ξ)][Dab][Dab][Dab][dF]L[Dab][Dab][Thr(3ξ)]; lactam 3-C)
- MIC E. coli ATCC25922 (Escherichia coli; [7]): 0.5 micrograms/mL
- MIC K. pneumoniae ATCC 4352 (Klebsiella pneumoniae [1]; [8]): 0.5 micrograms/mL
- MIC P. aeruginosa ATCC 27853 (Pseudomonas aeruginosa [2]; [9]): 0.125 micrograms/mL
- MIC P. aeruginosa ATCCCRM-9027 (Pseudomonas aeruginosa [2]; in the absence of Rifampicin): 2 micrograms/mL
- MIC A. baumannii ATCCBAA-747 (Acinetobacter baumannii [6]): 16 micrograms/mL
- MIC A. baumannii NCTC 13423 (Acinetobacter baumannii [6]): 4 micrograms/mL
- MIC K. pneumoniae ATCC-BAA-2146 (Klebsiella pneumoniae [3]): 0.5 micrograms/mL
- MIC K. pneumoniae CCUG-59348 (Klebsiella pneumoniae [3]): 4 micrograms/mL
- MIC K. pneumoniae NCTC 13438 (Klebsiella pneumoniae [3]): 1 micrograms/mL
- MIC P. aeruginosa CCUG 59626 (Pseudomonas aeruginosa [4]): 0.25 micrograms/mL

Compound: [3(R,S)-3-Amino-3- cyclohexanepropanoyl]-[4R- 4-hydroxy-L-Pro]-polymyxin B nonapeptide [Example A12]
- MIC E. coli ATCC25922 (Escherichia coli; [10]): >8 micrograms/mL
- MIC E. coli NCTC 13441 (Escherichia coli; [10]): >8 micrograms/mL
- MIC K. pneumoniae ATCC 4352 (Klebsiella pneumoniae [1]; [10]): >8 micrograms/mL
- MIC P. aeruginosa ATCC 27853 (Pseudomonas aeruginosa [2]; [10]): 2 micrograms/mL
- MIC P. aeruginosa CCUG 59347 (Pseudomonas aeruginosa [2]; [10]): 4 micrograms/mL
- MIC A. baumannii ATCC BAA-747 (Acinetobacter baumannii [6]; [10]): 8 micrograms/mL
- MIC A. baumannii NCTC 13424 (Acinetobacter baumannii [6]; [10]): 8 micrograms/mL
